Measurements reported in patent publication US8343983B2, “Substituted pyrazolo-pyrimidine compounds” (ArQule, Inc., priority 2009, dated 2013).
Where two headings read alike, the source gives them in different places.

Test system: cancer cells
Assay: MTS assay: inhibition of cell growth (formazan absorbance at 492 nm after 72 hours with test compound)
Type: cell-based
Details: inhibition class
Summary of the method: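 DMEM with 1% FBS; cells seeded at 3000/well and grown 18 h at 37 °C, then exposed to compound for 72 h and to MTS/PMS for 4 h. IC50 is the concentration giving a 50% absorbance drop; grades are % inhibition bands.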

[1] = Homo sapiens, DLD-1 cells, read-out: DLD-1, MTS 72 hours at 10 uM
[2] = Homo sapiens, KATO III cells, read-out: KATO III, MTS 72 hours at 10 uM
[3] = Homo sapiens, MDA-MB-231 cells, read-out: MDA-MB-231, MTS 72 hours at 10 uM
[4] = Homo sapiens, NCI-H1299 cells, read-out: NCI-H1299, MTS 72 hours at 10 uM
[5] = Homo sapiens, PC-3 cells, read-out: PC-3, MTS 72 hours at 10 uM
[6] = PACA-2 cells, read-out: PACA-2, MTS 72 hours at 10 uM

CSc1nc2c3c(n[nH]c3n1)CCN2Cc1ccccc1 [Compound 1, 6-benzyl-4-(methylthio)-2,6,7,8-tetrahydro-1,2,3,5,6-pentaazaacenaphthylene]
inhibition at 10 µM [1]: < 50% | inhibition at 10 µM [2]: < 50% | inhibition at 10 µM [3]: < 50% | inhibition at 10 µM [4]: < 50% | inhibition at 10 µM [5]: < 50% | inhibition at 10 µM [6]: < 50%

COc1ccc(CN2CCc3n[nH]c4nc(NCc5cccnc5)nc2c34)cc1 [Compound 102, 6-(4-methoxybenzyl)-N-(pyridin-3-ylmethyl)-2,6,7,8-tetrahydro-1,2,3,5,6-pentaazaacenaphthylen-4-amine]
inhibition at 10 µM [1]: > 79% | inhibition at 10 µM [2]: > 79% | inhibition at 10 µM [3]: > 79% | inhibition at 10 µM [4]: > 79% | inhibition at 10 µM [5]: > 79% | inhibition at 10 µM [6]: > 79%

Cc1cccc(CCNc2nc3c4c(n[nH]c4n2)CCN3Cc2ccccc2)c1 [Compound 77, 6-benzyl-N-[2-(3-methylphenyl)ethyl]-2,6,7,8-tetrahydro-1,2,3,5,6-pentaazaacenaphthylen-4-amine]
inhibition at 10 µM [1]: < 50% | inhibition at 10 µM [2]: < 50% | inhibition at 10 µM [3]: < 50% | inhibition at 10 µM [4]: 50 to 79% | inhibition at 10 µM [5]: < 50% | inhibition at 10 µM [6]: < 50%

C1Cc2n[nH]c3nc(N4CCOCC4)nc(c23)N1 [Compound 125, 4-morpholin-4-yl-2,6,7,8-tetrahydro-1,2,3,5,6-pentaazaacenaphthylene]
inhibition at 10 µM [1]: < 50% | inhibition at 10 µM [2]: < 50% | inhibition at 10 µM [3]: < 50% | inhibition at 10 µM [4]: < 50% | inhibition at 10 µM [5]: < 50% | inhibition at 10 µM [6]: < 50%

c1ccc(N2CCc3n[nH]c4nc(N5CCCC5)nc2c34)cc1 [Compound 216, 6-phenyl-4-pyrrolidin-1-yl-2,6,7,8-tetrahydro-1,2,3,5,6-pentaazaacenaphthylene]
inhibition at 10 µM [1]: < 50% | inhibition at 10 µM [2]: < 50% | inhibition at 10 µM [3]: < 50% | inhibition at 10 µM [4]: < 50% | inhibition at 10 µM [5]: < 50% | inhibition at 10 µM [6]: 50 to 79%

FC(F)(F)c1ccnc(N2CCN(c3nc4c5c(n[nH]c5n3)CCN4Cc3ccccc3)CC2)n1 [Compound 4, 6-benzyl-4-{4-[4-(trifluoromethyl)pyrimidin-2-yl]piperazin-1-yl}-2,6,7,8-tetrahydro-1,2,3,5,6-pentaazaacenaphthylene]
inhibition at 10 µM [1]: 50 to 79% | inhibition at 10 µM [2]: < 50% | inhibition at 10 µM [3]: > 79% | inhibition at 10 µM [4]: > 79% | inhibition at 10 µM [5]: > 79% | inhibition at 10 µM [6]: < 50%

COc1ccc(CN2CCc3n[nH]c4nc(NC5CCN(C)CC5)nc2c34)cc1 [Compound 111, 6-(4-methoxybenzyl)-N-(1-methylpiperidin-4-yl)-2,6,7,8-tetrahydro-1,2,3,5,6-pentaazaacenaphthylen-4-amine]
inhibition at 10 µM [1]: < 50% | inhibition at 10 µM [2]: < 50% | inhibition at 10 µM [3]: < 50% | inhibition at 10 µM [4]: < 50% | inhibition at 10 µM [5]: < 50% | inhibition at 10 µM [6]: < 50%

c1ccc(CNc2nc3c4c(n[nH]c4n2)CCN3c2ccccc2)cc1 [Compound 208, N-benzyl-6-phenyl-2,6,7,8-tetrahydro-1,2,3,5,6-pentaazaacenaphthylen-4-amine]
inhibition at 10 µM [1]: < 50% | inhibition at 10 µM [2]: < 50% | inhibition at 10 µM [3]: < 50% | inhibition at 10 µM [4]: < 50% | inhibition at 10 µM [5]: < 50% | inhibition at 10 µM [6]: < 50%

COc1ccc(CN2CCc3n[nH]c4nc(NC5CCCCC5)nc2c34)cc1 [Compound 107, N-cyclohexyl-6-(4-methoxybenzyl)-2,6,7,8-tetrahydro-1,2,3,5,6-pentaazaacenaphthylen-4-amine]
inhibition at 10 µM [1]: < 50% | inhibition at 10 µM [2]: < 50% | inhibition at 10 µM [3]: < 50% | inhibition at 10 µM [4]: < 50% | inhibition at 10 µM [5]: < 50% | inhibition at 10 µM [6]: < 50%

c1ccc(N2CCc3n[nH]c4nc(N5CCN(c6ccncc6)CC5)nc2c34)cc1 [Compound 210, 6-phenyl-4-(4-pyridin-4-ylpiperazin-1-yl)-2,6,7,8-tetrahydro-1,2,3,5,6-pentaazaacenaphthylene]
inhibition at 10 µM [1]: > 79% | inhibition at 10 µM [2]: > 79% | inhibition at 10 µM [3]: > 79% | inhibition at 10 µM [4]: > 79% | inhibition at 10 µM [5]: > 79% | inhibition at 10 µM [6]: > 79%

O=C(NCc1ccc(Cl)cc1)C1CN(Cc2ccccc2)c2nc(NCc3ccccc3)nc3[nH]nc1c23 (stereo not drawn) [Compound 238, 6-benzyl-4-(benzylamino)-N-(4-chlorobenzyl)-2,6,7,8-tetrahydro-1,2,3,5,6-pentaazaacenaphthylene-8-carboxamide]
inhibition at 10 µM [1]: > 79% | inhibition at 10 µM [2]: > 79% | inhibition at 10 µM [3]: > 79% | inhibition at 10 µM [4]: > 79% | inhibition at 10 µM [5]: > 79% | inhibition at 10 µM [6]: 50 to 79%

c1cncc(CNc2nc3c4c(n[nH]c4n2)CCN3)c1 [Compound 121, N-(pyridin-3-ylmethyl)-2,6,7,8-tetrahydro-1,2,3,5,6-pentaazaacenaphthylen-4-amine]
inhibition at 10 µM [1]: < 50% | inhibition at 10 µM [2]: < 50% | inhibition at 10 µM [3]: < 50% | inhibition at 10 µM [4]: < 50% | inhibition at 10 µM [5]: < 50% | inhibition at 10 µM [6]: < 50%

Clc1ccc(CCNc2nc3c4c(n[nH]c4n2)CCN3Cc2ccccc2)cc1Cl [Compound 70, 6-benzyl-N-[2-(3,4-dichlorophenyl)ethyl]-2,6,7,8-tetrahydro-1,2,3,5,6-pentaazaacenaphthylen-4-amine]
inhibition at 10 µM [1]: > 79% | inhibition at 10 µM [2]: > 79% | inhibition at 10 µM [3]: > 79% | inhibition at 10 µM [4]: > 79% | inhibition at 10 µM [5]: < 50% | inhibition at 10 µM [6]: > 79%

c1ccc(CNc2nc3c4c(n[nH]c4n2)CCN3)cc1 [Compound 101, N-benzyl-2,6,7,8-tetrahydro-1,2,3,5,6-pentaazaacenaphthylen-4-amine]
inhibition at 10 µM [1]: 50 to 79% | inhibition at 10 µM [2]: < 50% | inhibition at 10 µM [3]: < 50% | inhibition at 10 µM [4]: < 50% | inhibition at 10 µM [5]: 50 to 79% | inhibition at 10 µM [6]: > 79%

O=C(C1CN(Cc2ccccc2)c2nc(NCc3ccccc3)nc3[nH]nc1c23)N1CCOCC1 (stereo not drawn) [Compound 237, N,6-dibenzyl-8-(morpholin-4-ylcarbonyl)-2,6,7,8-tetrahydro-1,2,3,5,6-pentaazaacenaphthylen-4-amine]
inhibition at 10 µM [1]: < 50% | inhibition at 10 µM [2]: < 50% | inhibition at 10 µM [3]: < 50% | inhibition at 10 µM [4]: < 50% | inhibition at 10 µM [5]: < 50% | inhibition at 10 µM [6]: < 50%

c1ccc(CN2CCc3n[nH]c4nc(N5CCN6CCCC6C5)nc2c34)cc1 (stereo not drawn) [Compound 42, 6-benzyl-4-(hexahydropyrrolo[1,2-a]pyrazin-2(1H)-yl)-2,6,7,8-tetrahydro-1,2,3,5,6-pentaazaacenaphthylene]
inhibition at 10 µM [1]: < 50% | inhibition at 10 µM [2]: < 50% | inhibition at 10 µM [3]: < 50% | inhibition at 10 µM [4]: < 50% | inhibition at 10 µM [5]: < 50% | inhibition at 10 µM [6]: < 50%

Clc1ccccc1CCNc1nc2c3c(n[nH]c3n1)CCN2Cc1ccccc1 [Compound 35, 6-benzyl-N-[2-(2-chlorophenyl)ethyl]-2,6,7,8-tetrahydro-1,2,3,5,6-pentaazaacenaphthylen-4-amine]
inhibition at 10 µM [1]: < 50% | inhibition at 10 µM [2]: < 50% | inhibition at 10 µM [3]: 50 to 79% | inhibition at 10 µM [4]: < 50% | inhibition at 10 µM [5]: < 50% | inhibition at 10 µM [6]: < 50%

COc1ccc(CN2CCc3n[nH]c4nc(NCCN5CCOCC5)nc2c34)cc1 [Compound 105, 6-(4-methoxybenzyl)-N-(2-morpholin-4-ylethyl)-2,6,7,8-tetrahydro-1,2,3,5,6-pentaazaacenaphthylen-4-amine]
inhibition at 10 µM [1]: > 79% | inhibition at 10 µM [2]: > 79% | inhibition at 10 µM [3]: > 79% | inhibition at 10 µM [4]: > 79% | inhibition at 10 µM [5]: > 79% | inhibition at 10 µM [6]: > 79%

COc1cccc(N2CCN(c3nc4c5c(n[nH]c5n3)CCN4Cc3ccccc3)CC2)c1 [Compound 9, 6-benzyl-4-[4-(3-methoxyphenyl)piperazin-1-yl]-2,6,7,8-tetrahydro-1,2,3,5,6-pentaazaacenaphthylene]
inhibition at 10 µM [1]: < 50% | inhibition at 10 µM [2]: < 50% | inhibition at 10 µM [3]: > 79% | inhibition at 10 µM [4]: < 50% | inhibition at 10 µM [5]: > 79% | inhibition at 10 µM [6]: < 50%

O=C(NCc1ccccc1)C1CN(Cc2ccccc2)c2nc(NCCc3c[nH]c4ccccc34)nc3[nH]nc1c23 (stereo not drawn) [Compound 226, N,6-dibenzyl-4-{[2-(1H-indol-3-yl)ethyl]amino}-2,6,7,8-tetrahydro-1,2,3,5,6-pentaazaacenaphthylene-8-carboxamide]
inhibition at 10 µM [1]: > 79% | inhibition at 10 µM [2]: > 79% | inhibition at 10 µM [3]: > 79% | inhibition at 10 µM [4]: > 79% | inhibition at 10 µM [5]: > 79% | inhibition at 10 µM [6]: > 79%

COc1ccc(CN2CCc3n[nH]c4nc(N5CCN(c6ccncc6)CC5)nc2c34)cc1 [Compound 103, 6-(4-methoxybenzyl)-4-(4-pyridin-4-ylpiperazin-1-yl)-2,6,7,8-tetrahydro-1,2,3,5,6-pentaazaacenaphthylene]
inhibition at 10 µM [1]: > 79% | inhibition at 10 µM [2]: > 79% | inhibition at 10 µM [3]: > 79% | inhibition at 10 µM [4]: 50 to 79% | inhibition at 10 µM [5]: > 79% | inhibition at 10 µM [6]: > 79%

COc1ccc(CN2CCc3n[nH]c4nc(NCc5ccccc5)nc2c34)cc1 [Compound 100, N-benzyl-6-(4-methoxybenzyl)-2,6,7,8-tetrahydro-1,2,3,5,6-pentaazaacenaphthylen-4-amine]
inhibition at 10 µM [1]: < 50% | inhibition at 10 µM [2]: < 50% | inhibition at 10 µM [3]: < 50% | inhibition at 10 µM [4]: < 50% | inhibition at 10 µM [5]: < 50% | inhibition at 10 µM [6]: < 50%
